Test results reported in patent publication US20230358677A1, “Reversible Excited-State Photoacids and Photobases as Dynamic Fluorescence Sensors of Protonic Species” (California Institute of Technology, priority 2022, published 2023).

experiment: not given; details: excited state; photoluminescence titration, Henderson-Hasselbalch analysis; cited from earlier work

**Q.** With `Nc1ccc(-c2ccccc2)cc1` [4-aminobiphenyl] as the compound, how does the “pKa* pseudo” value read?
**A.** Its value is 14.25.

**Q.** Which “pKa* pseudo” value does the source give for `Nc1ccc(Nc2ccccc2)cc1` [4-aminodiphenylamine] here?
**A.** The value was 11.2.

**Q.** With `Nc1ccc2[nH]ccc2c1` [5-aminoindole] as the compound, how does the “pKa* pseudo” value read?
**A.** The value was 14.

**Q.** Which “pKa* pseudo” value does the source give for `Nc1cc2c3ccccc3ccc2c2ccccc12` [6-aminochrysene] here?
**A.** The value was 12.6.

**Q.** Which “pKa* pseudo” value does the source give for `Nc1ccc(C(=O)O)cn1` [6-aminonicotinic acid] here?
**A.** Its value is 14.2.

**Q.** For `Nc1cc2ccccc2c2ccccc12` [9-phenanthrylamine], which “pKa* pseudo” value is on record?
**A.** Its value is 12.18.

**Q.** With `Nc1ccc(Oc2ccc(N)cc2)cc1` [bis(4-aminophenyl)ether] as the compound, how does the “pKa* pseudo” value read?
**A.** The value was 11.2.

**Q.** With `c1ccc2c(c1)[nH]c1ccccc12` [carbazole] as the compound, how does the “pKa* pseudo” value read?
**A.** Its value is 11.9.

**Q.** Which “pKa* pseudo” value does the source give for `O=C(O)c1cc2ccccc2[nH]1` [indole-2-carboxylic acid] here?
**A.** Its value is 12.9.

**Q.** For `O=C(O)c1c[nH]c2ccccc12` [indole-3-carboxylic acid], which “pKa* pseudo” value is on record?
**A.** The value was 13.1.

**Q.** Which “pKa* pseudo” value does the source give for `O=C(O)c1cccc2[nH]ccc12` [indole-4-carboxylic acid] here?
**A.** Its value is 12.2.

**Q.** With `O=C(O)c1ccc2[nH]ccc2c1` [indole-5-carboxylic acid] as the compound, how does the “pKa* pseudo” value read?
**A.** The value was 12.3.

**Q.** Which “pKa* pseudo” value does the source give for `COc1cccc(N)c1` [m-anisidine] here?
**A.** The value was 13.7.

**Q.** Which “pKa* pseudo” value does the source give for `COC(=O)c1ccc(N)nc1` [methyl-6-aminonicotinate] here?
**A.** The value was 11.1.

**Q.** Which “pKa* pseudo” value does the source give for `COc1ccc(N)cc1` [p-anisidine] here?
**A.** Its value is 13.3.

same assay, conditions: ground state; cited from earlier work

**Q.** Which pKa does the source give for `Nc1ccc(-c2ccccc2)cc1` [4-aminobiphenyl] here?
**A.** Its pKa is over 15.5.

**Q.** With `Nc1ccc(Nc2ccccc2)cc1` [4-aminodiphenylamine] as the compound, how does the pKa read?
**A.** The pKa was over 16.0.

**Q.** With `Nc1ccc2[nH]ccc2c1` [5-aminoindole] as the compound, how does the pKa read?
**A.** The pKa was 16.1.

**Q.** For `Nc1cc2c3ccccc3ccc2c2ccccc12` [6-aminochrysene], which pKa is on record?
**A.** Its pKa is over 14.

**Q.** Which pKa does the source give for `Nc1cc2ccccc2c2ccccc12` [9-phenanthrylamine] here?
**A.** The pKa was over 14.

**Q.** Which pKa does the source give for `O=C(O)c1cc2ccccc2[nH]1` [indole-2-carboxylic acid] here?
**A.** Its pKa is 17.1.

**Q.** For `O=C(O)c1c[nH]c2ccccc12` [indole-3-carboxylic acid], which pKa is on record?
**A.** The pKa was 15.6.

**Q.** Which pKa does the source give for `O=C(O)c1cccc2[nH]ccc12` [indole-4-carboxylic acid] here?
**A.** The pKa was 16.4.

**Q.** Which pKa does the source give for `O=C(O)c1ccc2[nH]ccc2c1` [indole-5-carboxylic acid] here?
**A.** The pKa was 16.9.

**Q.** Which pKa does the source give for `COc1cccc(N)c1` [m-anisidine] here?
**A.** Its pKa is over 16.

**Q.** For `COc1ccc(N)cc1` [p-anisidine], which pKa is on record?
**A.** Its pKa is over 16.

experiment: Ground-state and excited-state acidities of aromatic-amine-based photoacids (Table 1); details: pKa* pseudo minus pKa
Source text: Because the Henderson-Hasselbalch equation is derived for proton-transfer reactions at thermal and chemical equilibrium, it is agnostic to whether the ESPT acceptor species are H2O(l) or OH^−(aq), but it does require that the system has reached excited-state quasi-equilibrium.
Observed rate constants can be determined for excited-state proton transfer from weak photoacids to a series of proton-accepting quenchers.

**Q.** For `Nc1ccc(-c2ccccc2)cc1` [4-aminobiphenyl], which ΔpKa pseudo is on record?
**A.** The ΔpKa pseudo was under −1.25.

**Q.** Which ΔpKa pseudo does the source give for `Nc1ccc(Nc2ccccc2)cc1` [4-aminodiphenylamine] here?
**A.** Its ΔpKa pseudo is under −4.8.

**Q.** For `Nc1ccc2[nH]ccc2c1` [5-aminoindole], which ΔpKa pseudo is on record?
**A.** Its ΔpKa pseudo is −2.1.

**Q.** With `Nc1cc2c3ccccc3ccc2c2ccccc12` [6-aminochrysene] as the compound, how does the ΔpKa pseudo read?
**A.** The ΔpKa pseudo was under −1.4.

**Q.** For `Nc1cc2ccccc2c2ccccc12` [9-phenanthrylamine], which ΔpKa pseudo is on record?
**A.** The ΔpKa pseudo was under −1.82.

**Q.** With `c1ccc2c(c1)[nH]c1ccccc12` [carbazole] as the compound, how does the ΔpKa pseudo read?
**A.** Its ΔpKa pseudo is −9.2.

**Q.** For `O=C(O)c1cc2ccccc2[nH]1` [indole-2-carboxylic acid], which ΔpKa pseudo is on record?
**A.** The ΔpKa pseudo was −4.2.

**Q.** With `O=C(O)c1c[nH]c2ccccc12` [indole-3-carboxylic acid] as the compound, how does the ΔpKa pseudo read?
**A.** The ΔpKa pseudo was −2.5.

**Q.** With `O=C(O)c1cccc2[nH]ccc12` [indole-4-carboxylic acid] as the compound, how does the ΔpKa pseudo read?
**A.** Its ΔpKa pseudo is −4.2.

**Q.** Which ΔpKa pseudo does the source give for `O=C(O)c1ccc2[nH]ccc2c1` [indole-5-carboxylic acid] here?
**A.** The ΔpKa pseudo was −4.6.

**Q.** For `COc1ccc(N)cc1` [p-anisidine], which ΔpKa pseudo is on record?
**A.** Its ΔpKa pseudo is under −2.7.

experiment: Acid-base titration of aqueous photoacid with absorption and steady-state photoluminescence detection (Henderson-Hasselbalch / Stern-Volmer fits, OH− as quencher); details: aqueous solution, pKa of the aliphatic primary amine, multi-quencher Stern-Volmer fit
Source text: FIGS. 2A through 2C illustrate acid-base titration of an aqueous solution of NS—NH2 photoacid with absorption and photoluminescence detection in accordance with an embodiment.
where aOH− is the activity of OH^−(aq), K*b pseudo is an erroneous observed equilibrium constant for base dissociation and KSV,OH− is the Stern-Volmer quenching constant, which is strictly dimensionless but reported here in units of M^−1 to be consistent with its typical usage. Unlike the Henderson-Hasselbalch equation, the Stern-Volmer equation is also applicable to non-equilibrium processes.
and KSV,OH−=k+q,OH−τo,PAH*, where τ is the excited-state lifetime (s) of NS—NH2* in the absence (τo,PAH*) or presence (τPAH*) of OH^− quencher and k+q,OH− is the bimolecular rate constant (M^−1 s^−1) for quenching of NS—NH2* by OH^− (forward direction of Reaction 1 with B=OH^−(aq)).
Several embodiments use the steady-state ultraviolet-visible electronic absorption and photoluminescence spectroscopy for characterization. Equal amounts of aromatic amine photoacids are portioned into five separate 100 mL volumetric flasks. For the non-proton-accepting quencher experiments, the five flasks are filled to the volumetric marker with aqueous solutions of 1 M HCl, 1 M KOH, 2 M KOH, 3 M KOH, and 4 M KOH. The aqueous 1 M KOH solution is titrated with the aqueous 1 M HCl solution to reach the desired pH values from 14 to 6, and the H^+ activities are measured using a pH meter (pH/Ion 510). […] Electronic absorption spectra and photoluminescence spectra are acquired using absorbance and fluorescence spectrometer(s), using a square-bottom quartz cuvette (1 cm path length) at room temperature. Electronic absorption spectra are baselined on a spectrum of deionized water and were corrected for scattering of light. Photoluminescence spectra are recorded by exciting with 310 nm light, slit widths for the excitation and emission monochromators were set to 5 nm, and the PMT detector voltage is set to 600 V. Photoluminescence spectra are corrected for changes in solution refractive index, inner filter effects and the wavelength-dependent correction factor of the fluorimeter. For experiments that use non-OH^− proton-accepting quenchers, equal amounts of the quencher are added to the dry volumetric flask intended to form the acidic and basic aqueous photoacid solutions, to prevent changes in total quencher concentration during the titration, and titrations are performed similarly to those in the absence of added proton-accepting quenchers. Although the total quencher concentration is kept constant throughout the titration, the activity of the deprotonated quencher species varied as a function of solution pH according to Equation 3. Ionic strength is matched at the most alkaline pH values; however, it is experimentally difficult to maintain the same ionic strength throughout the titration. Normalized photoluminescence intensities as a function of solution pH are obtained by dividing the corrected photoluminescence intensities at the wavelength of maximum photoluminescence to the maximum corrected photoluminescence intensity at the same wavelength.

**Q.** For `NCCNc1cccc2c(S(=O)(=O)[O-])cccc12.[Na+]` [EDANS, 5-((2-aminoethyl)amino)naphthalene-1-sulfonic acid sodium salt], which pKa is on record?
**A.** Its pKa is 10.06 ± 0.02.

same assay, conditions: excited-state deprotonation by the aliphatic primary amine

**Q.** Which unimolecular rate constant does the source give for `NCCNc1cccc2c(S(=O)(=O)[O-])cccc12.[Na+]` [EDANS, 5-((2-aminoethyl)amino)naphthalene-1-sulfonic acid sodium salt] here?
**A.** Its unimolecular rate constant is “(0.95±0.01)×10^8 s^−1”.

same assay, conditions: excited-state deprotonation by the aliphatic primary amine (intramolecular)

**Q.** For `NCCNc1cccc2c(S(=O)(=O)[O-])cccc12.[Na+]` [EDANS, 5-((2-aminoethyl)amino)naphthalene-1-sulfonic acid sodium salt], which “KSV,NH2” value is on record?
**A.** The value was 1.20 ± 0.02 M⁻¹.

same assay, conditions: from bimolecular rate constant and excited-state lifetime

**Q.** Which “predicted pK*a pseudo (Equation 5)” value does the source give for `NCCNc1cccc2c(S(=O)(=O)[O-])cccc12.[Na+]` [EDANS, 5-((2-aminoethyl)amino)naphthalene-1-sulfonic acid sodium salt] here?
**A.** Its value is 12.53±0.06.

**Q.** With `O=S(=O)([O-])c1cccc2cccc(Nc3ccccc3)c12.[Na+]` [sodium 8-anilinonaphthalene-1-sulfonate, 8-anilinonaphthalene-1-sulfonic acid sodium salt] as the compound, how does the “predicted pK*a pseudo (Equation 5)” value read?
**A.** The value was 13.92±0.04.

same assay, conditions: steady-state data; forward direction of Reaction 1 with B=OH−(aq)

**Q.** For `NCCNc1cccc2c(S(=O)(=O)[O-])cccc12.[Na+]` [EDANS, 5-((2-aminoethyl)amino)naphthalene-1-sulfonic acid sodium salt], which “bimolecular rate constant k+q,ss,OH−” value is on record?
**A.** Its value is “(23±1)×10^8 M^−1 s^−1”.

**Q.** With `O=S(=O)([O-])c1cccc2cccc(Nc3ccccc3)c12.[Na+]` [sodium 8-anilinonaphthalene-1-sulfonate, 8-anilinonaphthalene-1-sulfonic acid sodium salt] as the compound, how does the “bimolecular rate constant k+q,ss,OH−” value read?
**A.** Its value is “(48±4)×10^8 M^−1 s^−1”.

same assay, conditions: steady-state photoluminescence, non-linear Stern-Volmer fit, OH−(aq) quencher

**Q.** With `NCCNc1cccc2c(S(=O)(=O)[O-])cccc12.[Na+]` [EDANS, 5-((2-aminoethyl)amino)naphthalene-1-sulfonic acid sodium salt] as the compound, how does the “KSV,ss,OH−” value read?
**A.** The value was 30 ± 1 M⁻¹.

same assay, conditions: steady-state photoluminescence, traditional linearized Stern-Volmer fit, OH−(aq) quencher

**Q.** With `O=S(=O)([O-])c1cccc2cccc(Nc3ccccc3)c12.[Na+]` [sodium 8-anilinonaphthalene-1-sulfonate, 8-anilinonaphthalene-1-sulfonic acid sodium salt] as the compound, how does the “KSV,ss,OH− (linearized Stern-Volmer)” value read?
**A.** The value was 1.2 ± 0.1 M⁻¹.
